Measured values published in patent publication US20100249123A1, “NOVEL BENZAMIDE DERIVATIVES AS MODULATORS OF THE FOLLICLE STIMULATING HORMONE” (ADDEX PHARMA SA, priority 2007, published 2010).

target: T1, rat follicle stimulating hormone receptor (rFSHR) (Rattus norvegicus, UniProt P20395); assay: Intracellular cAMP measurement (HTRF) assay, antagonism of EC70 of hFSH; format: cell-based; conditions: HEK293 cells expressing rFSHR, 1 ng/ml hFSH (EC70), read-out: Class (IC50 to antagonise an EC70 of FSH receptors agonist such as hFSH)
T1 construct: expressed in transfected cells
T1 sequence (P20395 18-692): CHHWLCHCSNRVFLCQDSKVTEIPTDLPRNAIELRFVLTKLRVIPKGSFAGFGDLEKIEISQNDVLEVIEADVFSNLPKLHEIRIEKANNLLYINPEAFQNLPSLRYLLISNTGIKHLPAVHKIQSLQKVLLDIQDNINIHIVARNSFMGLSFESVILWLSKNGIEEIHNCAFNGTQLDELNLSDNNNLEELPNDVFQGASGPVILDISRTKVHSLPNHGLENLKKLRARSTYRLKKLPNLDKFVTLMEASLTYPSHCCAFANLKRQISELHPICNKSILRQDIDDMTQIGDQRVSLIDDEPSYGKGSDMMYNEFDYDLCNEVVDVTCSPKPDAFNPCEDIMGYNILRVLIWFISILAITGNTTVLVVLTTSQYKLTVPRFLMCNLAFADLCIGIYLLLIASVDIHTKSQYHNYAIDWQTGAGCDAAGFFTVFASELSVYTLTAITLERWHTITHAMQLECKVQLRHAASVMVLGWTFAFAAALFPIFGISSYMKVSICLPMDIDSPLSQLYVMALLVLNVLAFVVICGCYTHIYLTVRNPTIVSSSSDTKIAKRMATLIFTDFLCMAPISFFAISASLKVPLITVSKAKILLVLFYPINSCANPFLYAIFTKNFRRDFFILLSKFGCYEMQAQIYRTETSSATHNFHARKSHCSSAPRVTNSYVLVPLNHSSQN
From the text: Intracellular cAMP Measurement Assay
The Intracellular cAMP measurement assay is a functional cell-based assay used to study GPCR function. This method relies on a Time-Resolved Fluorescence (HTRF) assay to measure the cAMP accumulation upon receptor-mediated Gs protein activation in cells expressing recombinant GPCR or in cells from native tissues. In brief, this method is a competitive immunoassay between native cAMP produced by cells and the cAMP labeled with a fluorescent tag. The endogenously produced cAMP competes with exogenous added d2-labelled cAMP for the cAMP binding site on a Eu3+ cryptate labelled anti-cAMP antibody. The d2-labelled cAMP and the Eu^3+ labelled antibody produces a basal fluroresence via HTRF and therefore an intracellular increase in unlabelled cAMP is detected as decrease in this signal. cAMP is one of the most important intracellular mediators. Its concentration in cells can be increased upon binding of many hormones to their receptors. The most studied pathway consists in the release of α-subunit GTP-binding proteins following ligand-receptor interaction, which in turn activates or inhibits the ATP/cAMP conversion function of adenylate cyclase enzyme. cAMP is then involved in many complex regulatory processes such as protein kinase activation or ion channel gating. This method is widely used to study receptor activation of G protein in cells over-expressing GPCRs or in native cells, including FSH receptors expressing cells (Gabriel et al., Assay Drug Dev. Technol., 1, 291-303, 2003).
Transfection and cell culture: The cDNA encoding the rat follicle stimulating hormone receptor (rFSHR), (accession number NM_199237, NCBI Nucleotide database browser) was subcloned into an expression vector containing also the hygromycin resistance gene. Transfection of this vector into HEK293 cells with PolyFect reagent (Qiagen) according to supplier's protocol, and hygromycin treatment allowed selection of antibiotic resistant cells which had integrated stably one or more copies of the plasmid. Positive cellular clones expressing rFSHR were identified in a functional assay measuring cAMP production in cells following stimulation by addition of purified human follicle stimulating hormone (hFSH).
HTRF cAMP assay: On the day of the experiment, cells were detached from the Petri dish and distributed in a low volume, black-walled 384-well plate at a density of 5,000 cells/well in an assay buffer containing 1 mM IBMX to prevent cAMP degradation by cytoplasmic phosphodiesterases. The determination of the cAMP accumulation was performed using an HTRF assay (Trinquet et al., Anal. Biochem., 358, 126-135, 2006). Briefly, cells were incubated for 3 min in the presence of increasing concentrations of negative allosteric modulators (from 1 nM to 60 μM) and then 30 min in the presence of 1 ng/ml of hFSH, an agonist of rat FSH receptor, that has been determined in previous experiments to correspond to the EC70, a concentration that gives 70% of the maximal response of the agonist, and is in accordance with published data (Fox et al., Mol. Endocrin., 15, 378-389, 2001). […] Cells were then lysed by adding the HTRF assay components, the europium cryptate-labeled anti-cAMP antibody, and the XL665-labeled cAMP analog, previously diluted in a HEPES buffer (50 mM, pH 7.0) containing 0.8 M potassium fluoride, 0.2% (w/v) BSA, and 1% (v/v) Triton X-100, a percentage of detergent that ensure complete cell lysis. Assay was then incubated for 1 hr at room temperature, and HTRF signal was measured after excitation at 337 nm, and dual emission at 620 and 665 nm, using a RubyStar fluorimeter (BMG Labtechnologies). Moreover, the fluorescence ratio of an appropriate range of known concentrations of cAMP standards was also included on each assay plate to produce a standard cAMP curve. […]

| Compound | IC50 |
| --- | --- |
| COc1ccc(C(=O)Nc2ccc(C(C)(C)C#N)c(-c3cccs3)c2)cc1OC [Example 206, N-[4-(Cyano-dimethyl-methyl)-3-thiophen-2-yl-phenyl]-3,4-dimethoxy-benzamide] | < 150 nM |
| COc1ccc(C(=O)Nc2ccc(C(C)(C)CNC(=O)c3nn(C)c4ccccc34)c(Cl)c2)cc1OC [Example 121, 1-Methyl-1H-indazole-3-carboxylic acid{2-[2-chloro-4-(3,4-dimethoxy-benzoylamino)-phenyl]-2-methyl-propyl}-amide] | 150 to 400 nM |
| COc1ccc(C(=O)Nc2ccc(C(C)(C)CNC(=O)c3cn(CCCN(C)C)c4ccc(F)cc34)cc2)cc1OC [Example 192, 1-(3-Dimethylamino-propyl)-5-fluoro-1H-indole-3-carboxylic acid {2-[4-(3,4-dimethoxy-benzoylamino)-phenyl]-2-methyl-propyl}-amide] | ≥ 1000 nM |
| 1H-Pyrrolo[2,3-b]pyridine-5-carboxylic acid {2-[4-(3,4-dimethoxy-benzoylamino)-phenyl]-2-methyl-propyl}-amide [Example 201] | 150 to 400 nM |
| COc1ccc(C(=O)Nc2ccc(C(C)(C)CNC(=O)c3cnc4ccc(F)cn34)cc2)cc1OC [Example 211] | < 150 nM |
| COc1ccc(C(=O)Nc2ccc(C(C)(C)CNC(=O)c3ccc4c(c3)nc(C)n4C)cc2)cc1OC [Example 209] | ≥ 1000 nM |
| COc1ccc(C(=O)Nc2ccc(C(C)(C)CNC(=O)c3cn4cccnc4n3)cc2)cc1OC [Example 186] | ≥ 1000 nM |
| COc1ccc(C(=O)Nc2ccc(C(C)(C)CNC(=O)c3n[nH]c4ccccc34)c(Cl)c2)cc1OC [Example 113, 1H-Indazole-3-carboxylic acid{2-[2-chloro-4-(3,4-dimethoxy-benzoylamino)-phenyl]-2-methyl-propyl}-amide] | 150 to 400 nM |
| COc1ccc(C(=O)Nc2ccc(Cl)c(C(C)(C)C#N)c2)cc1OC [Example 125, N-[4-Chloro-3-(cyano-dimethyl-methyl)-phenyl]-3,4-dimethoxy-benzamide] | ≥ 1000 nM |
| COc1ccc(C(=O)Nc2ccc(C(C)(C)CCNC(=O)c3cnc4[nH]cnc4c3)cc2)cc1OC [Example 199, 3H-Imidazo[4,5-b]pyridine-6-carboxylic acid {3-[4-(3,4-dimethoxy-benzoylamino)-phenyl]-3-methyl-butyl}-amide] | 150 to 400 nM |
| COc1ccc(C(=O)Nc2ccc(C(C)(C)CNC(=O)c3cnn4ccccc34)cc2)cc1OC [Example 41] | < 150 nM |
| COc1ccc(C(=O)Nc2ccc(C(C)(C)CNC(=O)c3ccc4[nH]cnc4c3)cc2)cc1OC [Example 207] | 150 to 400 nM |
| COCCn1cc(C(=O)NCC(C)(C)c2ccc(NC(=O)c3ccc(OC)c(OC)c3)cc2)c2cc(F)ccc21 [Example 191, 5-Fluoro-1-(2-methoxy-ethyl)-1H-indole-3-carboxylic acid {2-[4-(3,4-dimethoxy-benzoylamino)-phenyl]-2-methyl-propyl}-amide] | 150 to 400 nM |

More lines, now with the values ahead:

| IC50 | Compound |
| --- | --- |
| 400 to 1000 nM | COc1ccc(C(=O)Nc2ccc(C(C)(C)CNC(=O)c3cn(C(C)=O)c4ccccc34)cc2)cc1OC [Example 104, 1-Acetyl-1H-indole-3-carboxylic acid{2-[4-(3,4-dimethoxy-benzoylamino)-phenyl]-2-methyl-propyl}-amide] |
| 150 to 400 nM | COc1ccc(C(=O)Nc2ccc(C(C)(C)CNC(=O)c3ccccn3)cc2)cc1OC [Example 74] |
| 150 to 400 nM | COc1ccc(C(=O)Nc2ccc(C(C)(C)CNC(=O)c3nc4ccncc4[nH]3)cc2)cc1OC [Example 214] |
| 150 to 400 nM | COc1ccc(C(=O)Nc2ccc(C(C)(C)CNC(=O)c3c[nH]c4ccccc34)cc2)cc1OC [Example 101, 1H-Indole-3-carboxylic acid{2-[4-(3,4-dimethoxy-benzoylamino)-phenyl]-2-methyl-propyl}-amide] |
| 150 to 400 nM | COc1ccc(C(=O)Nc2cccc(C(C)(C)CNC(=O)c3cnc4ccccn34)c2)cc1OC [Example 203, Imidazo[1,2-a]pyridine-3-carboxylic acid {2-[3-(3,4-dimethoxy-benzoylamino)-phenyl]-2-methyl-propyl}-amide] |
| < 150 nM | CCc1cc(NC(=O)c2ccc(OC)c(OC)c2)ccc1C(C)(C)CNC(=O)c1cnc2[nH]cnc2c1 [Example 198, 3H-Imidazo[4,5-b]pyridine-6-carboxylic acid {2-[4-(3,4-dimethoxy-benzoylamino)-2-ethyl-phenyl]-2-methyl-propyl}-amide] |
| 150 to 400 nM | COc1ccc(C(=O)Nc2ccc(C(C)(C)C#N)c(-c3cccnc3)c2)cc1OC [Example 132, N-[4-(Cyano-dimethyl-methyl)-3-pyridin-3-yl-phenyl]-3,4-dimethoxy-benzamide] |
| 400 to 1000 nM | COc1ccc(C(=O)Nc2ccc(C(C)(C)CCNC(C)=O)c(-c3cccnc3)c2)cc1OC [Example 221, N-(4-(4-acetamido-2-methylbutan-2-yl)-3-(pyridin-3-yl)-phenyl)-3,4-dimethoxybenzamide] |
| ≥ 1000 nM | COc1ccc(C(=O)Nc2cccc(C3(CNC(=O)c4nn(C)c5ccccc45)CCCC3)c2)cc1OC [Example 102, 1-Methyl-1H-indazole-3-carboxylic acid{1-[3-(3,4-dimethoxy-benzoylamino)-phenyl]-cyclopentylmethyl}-amide] |
| ≥ 1000 nM | COc1ccc(C(=O)Nc2ccc(C(C)(C)C#N)c(-c3ccccn3)c2)cc1OC [Example 183, N-[4-(Cyano-dimethyl-methyl)-3-pyridin-2-yl-phenyl]-3,4-dimethoxy-benzamide] |
| 150 to 400 nM | COc1ccc(C(=O)Nc2ccc(C(C)(C)CCNC(=O)c3cnc4ccccn34)cc2)cc1OC [Example 194, Imidazo[1,2-a]pyridine-3-carboxylic acid {3-[4-(3,4-dimethoxy-benzoylamino)-phenyl]-3-methyl-butyl}-amide] |
| 150 to 400 nM | COc1ccc(C(=O)Nc2ccc(C(C)(C)CNC(=O)c3n[nH]c4ccccc34)c(C)c2)cc1OC [Example 109, 1H-Indazole-3-carboxylic acid{2-[4-(3,4-dimethoxy-benzoylamino)-2-methyl-phenyl]-2-methyl-propyl}-amide] |
| 400 to 1000 nM | COc1ccc(C(=O)Nc2ccc(C(C)(C)C#N)c(-c3cnn(C)c3)c2)cc1OC [Example 205, N-[4-(Cyano-dimethyl-methyl)-3-(1-methyl-1H-pyrazol-4-yl)-phenyl]-3,4-dimethoxy-benzamide] |
| ≥ 1000 nM | COc1ccc(C(=O)Nc2ccc(C(C)(CO)CNC(=O)c3cnc4ccccn34)cc2)cc1OC (stereo not drawn) [Example 212, Imidazo[1,2-a]pyridine-3-carboxylic acid {2-[4-(3,4-dimethoxy-benzoylamino)-phenyl]-3-hydroxy-2-methyl-propyl}-amide] |
